# Where “and” joins values, the source holds several entries; their conditions need not be identical. Equal values may be shown once. Entries after “also recorded” stand apart in the source; their conditions may differ.
# What was measured:
# [1] = tested on: AII-2 receptor (AII receptor subtype-2); settings: in words; cited from earlier work
# AII-1 receptor = AII-1 receptor antagonism (statement); settings: in words
# [2] = tested on: renin-induced disruption of passive avoidance retention; test: Renin-disrupted passive avoidance retention; format: in vivo, male Sprague-Dawley rats; settings: for effect on memory / renin-induced amnesia: IVT, in words
# Procedure: Experimentally naive male Sprague-Dawley rats […] (Charles River Breeding Laboratories, Kingston, N.Y.), weighing between 175 to 200 gm were used. The animals were housed four per cage (45.0 L × 20.0 H × 26.0 W cm) with free access to food and water. They were maintained on a 12 h light/dark cycle (lights on 0600 h) and at a room temperature of 22±1° C. with relative humidity of 50±10%.
# The experimental sessions were conducted in a two-compartment passive avoidance box. One compartment, made of clear plastic with a perforated clear plastic floor, measured 21(L)=24.5(H)=17(W) cm and was illuminated with a 60 watt incandescent light bulb placed 36 cm above the floor. The other compartment, made of black plastic, measured 30.5 (L)×20.3 (H)×21.5 (W) cm with a floor made of 4 mm stainless steel rods spaced 1.2 cm apart. A grid floor shocker (Coulbourn Instruments) was connected to the steel rods and provided scrambled footshock. The two compartments were separated by a solenoid-operated slide door (Lafayette Instrument Co., Lafayette, Ind.). An electronic counter (Coulbourn Instruments), triggered by the opening or closing of the slide door, recorded acquisition and retention latencies (latencies were defined as the time it took an animal to enter the dark compartment).
# Passive avoidance training began by placing the rat into the clear compartment of the two-compartment passive avoidance box. Following a 10 sec delay, the slide door to the dark compartment was raised. Once the rat moved completely into the dark compartment (all four paws on the shock grid floor) the slide door was lowered, and after a 10 sec delay, a 1.0 mA shock was applied to the grid floor for three sec. A second three s shock was delivered after an additional 10 sec delay. The rats were immediately removed from the dark compartment and returned to their home cage. A retention test was given 24 h later. It proceeded in the same manner as the training session except that no shock was applied to the grid floor when the rats were provided access to the dark compartment for a maximum of 300 sec.
# All drugs were administered IVT 60 minutes prior to acquisition training in a volume of 5 μL. Doses are expressed as the free base weight of each compound.
# [3] = tested on: AII binding sites in the brain; test: Binding of AII antagonists to sections of brain slices; settings: in words
# uphill avoidance = settings: acute 30 mg/kg PO; in words; cited from earlier work
# [4] = tested on: scopolamine-induced PA amnesia; settings: three times per day at 1, 3 and 10 mg/kg PO; in words; cited from earlier work
# [5] = tested on: scopolamine-induced impairment of eight arm radial maze performance; settings: 3 mg/kg IP; in words; cited from earlier work
# [6] = tested on: ACh in the striatum and hypothalamus; settings: acute or repeated administration; in words; cited from earlier work
# [7] = tested on: memory of previously learned tasks; anticholinergic effect on performance; settings: in words; cited from earlier work
# [8] = tested on: light/dark habituation performance; settings: subchronic treatment; in words; cited from earlier work
# avoidance learning = settings: renin into lateral ventricle; captopril IVT prior to renin; in words; cited from earlier work
# [9] = tested on: scopolamine-induced disruption of performance; settings: daily treatment; in words; cited from earlier work
# [10] = tested on: retention of a passive avoidance response; settings: injected into dorsal neostriatum; in words; cited from earlier work
# [11] = tested on: potassium-stimulated release of ACh in entorhinal cortex; settings: in vitro, entorhinal cortex from rat brain; in words; cited from earlier work
# [12] = tested on: AII in cerebrospinal fluid; settings: after renin IVT; increased from 40; cited from earlier work
molecule,measurement,setting,value
"O[C@H](CS)[C@H](O)CS (racemic) [DTT, dithiothreitol]",inactivation of AII-2 receptor by DTT,[1],resistant to DTT inactivation
"CCCc1nc(C(F)(F)F)c(C(=O)O)n1Cc1ccc(-c2ccccc2-c2nnn[nH]2)cc1 [Compound C, 2-n-propyl-1-[(2'-(1H-tetrazol-5-yl)biphenyl-4-yl)methyl]-4-trifluoromethylimidazole-5-carboxylic acid]",AII-1 receptor antagonist activity,AII-1 receptor,AII-1 receptor antagonists
same,effect on memory / renin-induced amnesia,[2],protected against amnesia
"CCCc1nc(C(F)(F)F)c(CO)n1Cc1ccc(-c2ccccc2-c2nnn[nH]2)cc1 [Compound D, 2-n-propyl-5-hydroxymethyl-1-[(2'-(1H-tetrazol-5-yl)biphenyl-4-yl)methyl]-4-trifluoromethylimidazole]",AII-1 receptor antagonist activity,AII-1 receptor,AII-1 receptor antagonists
same,effect on memory / renin-induced amnesia,[2],protected against amnesia
"Cc1cc(Cn2cnc3c2CC(C(=O)O)N(C(=O)C(c2ccccc2)c2ccccc2)C3)ccc1N (stereo not shown) [EXP655, 1-(4-amino-3-methylphenyl)methyl-5-diphenylacetyl-4,5,6,7-tetrahydro-1H-imidazo[4,5-c]pyridine-6-carboxylic acid]",sensitivity of AII binding sites in brain,[3],the majority of binding sites in the brain are DTT-insensitive and EXP655-sensitive
same,effect on memory / renin-induced amnesia,[2],less effective in preventing amnesia
CCOC(=O)C(CCc1ccccc1)NC(C)C(=O)N1CC2(CC3CCC2CC3)CC1C(=O)O (stereo not shown) [Hoe 288],"performance during retention testing, uphill avoidance",uphill avoidance,improved performance during retention testing
same,effect on scopolamine-induced PA amnesia,[4],partially reversed the amnesia
same,effect of muscarinic receptor blockade on performance,[5],partially antagonized the effects of muscarinic receptor blockade
same,change of ACh in striatum and hypothalamus,[6],significant decrease in ACh
NCCCC[C@H](OP(=O)(O)CCCCc1ccccc1)C(=O)N1CCC[C@H]1C(=O)O [SQ 29852],effect on anticholinergic effect on performance,[7],"ameliorate, at least in part"
same,effect on memory of previously learned tasks,[7],protective effects on memory of previously learned tasks
C[C@H](CS)C(=O)N1CCC[C@H]1C(=O)O [captopril],rate of acquisition of light/dark habituation performance,[8],increased the rate of acquisition
same,effect on avoidance learning,avoidance learning,prevented the renin-induced avoidance disruption
same,scopolamine-induced disruption of performance,[9],prevented
same,effect on memory / renin-induced amnesia,[2],prevented
NC(=O)[C@@H]1CCCN1C(=O)[C@H](Cc1cnc[nH]1)NC(=O)[C@@H]1CCC(=O)N1 [thyrotropin releasing hormone],effect on retention of a PA response,[10],no effect
"AI: printed ""AI, but not AI"" in b14 (DRVYIHPFHL; Angiotensin-1; UniProt P01019 25-34, looked up)",effect on potassium-stimulated release of ACh,[11],reduced potassium-stimulated release of ACh without effects on basal levels
"AII: Angiotensin-II, a circulating hormone thought to act as a neuropeptide in the CNS (DRVYIHPF; Angiotensin-2; UniProt P01019 25-32, looked up)",effect on retention of a PA response,[10],disruption in retention of a PA response
same,effect on potassium-stimulated release of ACh,[11],can inhibit the release of ACh
"[1-sarcosine, 8-threonine]angiotensin-II",effect on potassium-stimulated release of ACh,[11],antagonized
lysine-8-vasopressin,effect on retention of a PA response,[10],no effect
"renin: Renin (Sigma Chemicals), a stimulator of endogenous AII biosynthesis (protein, UniProt P00797 67-406, looked up) Renin: LTLGNTTSSVILTNYMDTQYYGEIGIGTPPQTFKVVFDTGSSNVWVPSSKCSRLYTACVYHKLFDASDSSSYKHNGTELTLRYSTGTVSGFLSQDIITVGGITVTQMFGEVTEMPALPFMLAEFDGVVGMGFIEQAIGRVTPIFDNIISQGVLKEDVFSFYYNRDSENSQSLGGQIVLGGSDPQHYEGNFHYINLIKTGVWQIQMKGVSVGSSTLLCEDGCLALVDTGASYISGSTSSIEKLMEALGAKKRLFDYVVKCNEGPTLPDISFHLGGKEYTLTSADYVFQESYSSKKLCTLAIHAMDIPPPTGPTWALGATFIRKFYTEFDRRNNRIGFALAR",AII in cerebrospinal fluid,[12],about 5000 fmol per mL
same,effect on avoidance learning,avoidance learning,disruption of avoidance learning
same,effect on memory / renin-induced amnesia,[2],produces memory deficit; also recorded: dose-related amnesia
same,Median Retention Latency,[2]; renin 1.0 μg/5 μL IVT alone,48 s and 32 s and 27 s
same,Median Retention Latency,[2]; renin 5.0 μg/5 μL IVT alone,17 s

# From US5155126A, “Treatment of central nervous system disorders with pyrazole, pyrrole and triazole angiotensin-II receptor antagonists” (E. I. du Pont de Nemours and Company, priority 1991, dated 1992)
